Measurements: paper PMC8700061, “Fragment-Sized and Bidentate (Immuno)Proteasome Inhibitors Derived from Cysteine and Threonine Targeting Warheads” (Cells, 2021)

Experiments:
[1] = HPLC-based stability assay in PBS; assay type: physicochemical; conditions: PBS pH 7.4
Experimental: (§1) GSH reactivity assay was performed as described by Petri et al.; 500 μM solution of compound (PBS buffer pH 7.4, 10% MeCN, 250 μL) with 200 μM solution of indoprofen as internal standard were added to 10 mM GSH solution (dissolved in PBS buffer, 250 μL) in a 1:1 ratio. The final concentration was 250 μM compound, 100 μM indoprofen, 5 mM GSH and 5% MeCN (500 μL). The final mixture was analyzed by HPLC after 0, 1, 2, 4, 8, 12, 24, 48, and 72 h. The degradation kinetics were also studied using the method described in [24], except that pure PBS buffer was used instead of GSH solution. In this experiment, the final concentration of the mixture was 250 μM fragment, 100 μM indoprofen and 5% MeCN. The area under the curve (AUC) values were determined by integrating the HPLC spectra and then corrected with the internal standard.

GSH = test: HPLC-based GSH reactivity assay; assay type: physicochemical; conditions: 5 mM glutathione (GSH) in PBS buffer; 250 µM compound, 5 mM GSH, PBS pH 7.4; read-out: Reactivity with GSH (HPLC-based assay), t1/2
Experimental: as §1, with “The final concentration was 250 μM compound, 100 μM indoprofen, 5 mM GSH and 5% MeCN (500 μL).” left out, “In this experiment, the final concentration of the mixture was 250 μM fragment, 100 μM indoprofen and 5% MeCN.” left out

| Structure (SMILES) | Stability in Buffer (HPLC-based assay) [1] | half-life at 250 µM (GSH) [min] |
| --- | --- | --- |
| CC(C)C[C@H](NC(=O)CCn1c(C#N)nc2cccc(Cl)c21)B1O[C@@H]2C[C@@H]3C[C@@H](C3(C)C)[C@]2(C)O1 [Compound 38] | stable ^b,c | – |
| CC(C)C[C@H](NC(=O)Cc1ccc2oc(C#N)nc2c1)B1O[C@@H]2C[C@@H]3C[C@@H](C3(C)C)[C@]2(C)O1 [Compound 39] | stable ^b,c | 3 to 60 |
| CC(C)C[C@H](NC(=O)CCCn1c(C#N)nc2ccccc21)B1O[C@@H]2C[C@@H]3C[C@@H](C3(C)C)[C@]2(C)O1 [Compound 31] | stable ^b,c | – |
| CC(C)C[C@H](NC(=O)CCn1c(C#N)nc2ccccc21)B1O[C@@H]2C[C@@H]3C[C@@H](C3(C)C)[C@]2(C)O1 [Compound 30] | stable ^b,c | – |
| COc1cccc2oc(C#N)nc12 [Compound 6] | stable ^c,d | < 3 |
